Our source for the DC50 values is patent US10874743B2, “IRAK degraders and uses thereof” (Kymera Therapeutics, Inc., priority 2017, dated 2020).

Bounds are passed on as bounds.

In this assay the target is T1, IRAK4 (Homo sapiens, UniProt Q9NWZ3).
T1 sequence (Q9NWZ3 1-460): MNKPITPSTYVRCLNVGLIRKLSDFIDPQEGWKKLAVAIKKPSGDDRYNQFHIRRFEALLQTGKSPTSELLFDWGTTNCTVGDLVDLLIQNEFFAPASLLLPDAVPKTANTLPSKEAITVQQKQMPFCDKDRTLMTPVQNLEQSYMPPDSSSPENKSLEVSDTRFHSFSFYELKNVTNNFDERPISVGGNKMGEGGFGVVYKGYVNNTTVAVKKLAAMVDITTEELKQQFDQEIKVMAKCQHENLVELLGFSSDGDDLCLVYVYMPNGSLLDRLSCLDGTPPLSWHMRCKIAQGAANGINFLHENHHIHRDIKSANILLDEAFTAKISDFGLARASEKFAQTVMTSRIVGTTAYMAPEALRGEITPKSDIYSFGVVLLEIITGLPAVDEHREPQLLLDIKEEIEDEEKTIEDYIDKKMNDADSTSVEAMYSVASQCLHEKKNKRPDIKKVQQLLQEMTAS
The experiment in a line: OCI-LY-10 MSD assay for IRAK4 DC50. Particulars: OCI-LY10 cells, 4 hr incubation, concentration required to degrade 50% of protein. In kind it is cell-based. Details: endogenous in cells; host or cells: OCI-LY10. As to the method: A MSD assay was run to determine the concentration of compound required to degrade 50% of protein (DC50).
Day 1 • Compounds were reconstituted to 10 mM in stock solutions. The stock solutions were diluted to 5 mM and 45 μL of each dilution was transferred to a 384 pp-plate. A 3 fold, 8-point serial dilution was performed by transferring 15 μL of compound into 30 μL DMSO using Janus. • 20 nL of each compounds were added into each well of a 96-well plate (Corning3799). • OCI-Ly10 cells were seeded into the 96-well plate at 3.0*10e^5 cells/100 μL/well. • The cell plate was shaken at 720 rpm for 5 min and incubated for 4 hr. • The 100 μL of cells were transferred into the 96-PCR plate and spun down at high speed for 5 mins. • The supernatant was discarded and 100 μL of RIPA lysis buffer with proteinase inhibitors was added per well. The plate was then sealed and shaken at 600 rpm and 4° C. for about 20 min. • The plate was then spun down at high speed (about 3200 g) for 30 min and then frozen in a −80° C. fridge. • A bare MSD plate (L15XA-3) was coated with 2 μg/mL of capture antibody (mouse Anti-IRAK4 antibody [2H9], ab119942) in PBS to 40 μL/well and incubated overnight at 4° C.
Day 2 • The MSD coated plate was washed 3× (150 μL/well) with 1×TBST (CST #9997S). • The MSD plate was then blocked with 150 μL of blocking buffer [3% Blocker A (MSD, R93BA-4) in TBST]/well and shaken for 1 hr at R^† and 600 rpm. • The MSD plate was washed 3× (150 μL/well) with 1×TBST. The sample RIPA lysates were then added to the MSD plate (50 μL/well) and shaken for 1 hr at R^† and 600 rpm. • The MSD plate was washed 3× (150 μL/well) with 1×TBST and the primary detection antibody (Rabbit Anti-IRAK4 antibody [Y279], ab32511) was added to a final concentration of 1 μg/ml with 25 μL/well. The plate was then shaken for 1 hr at RT and 600 rpm. • The MSD plate was washed 3× (150 μL/well) with 1×TBST and the secondary detection antibody, SULFO-TAG anti-species antibody (Anti Rabbit Antibody (R32AB-5) MSD, R32AB-1) was added to a volume of 25 μL/well at a final concentration of 1 jag/ml. The plate was then shaken for 1 hr at RT and 600 rpm. • The MSD plate was then washed 3× (150 μL/well) with 1×TBST. • lx MSD reading buffer was then added (150 μL/well) and the plate was diluted with 4× water. (MSD, R92TC-2) • The MSD instrument was then read.
Data Analysis • The remaining activity was calculated following the formula below:
Calculate • The DC50 was calculated by fitting the Curve using Xlfit (v5.3.1.3), equation 201: Y=Bottom+(Top−Bottom)/(1+10^((Log IC50−X)*HillSlope))
OCI-LY-10 DC50 results. The letter codes for IRAK4 DC50 indicate the concentration of compound required to degrade 50% of protein: A (<0.05 μM), B (0.05-0.1 μM), C (0.1-0.5 μM), D (0.5-1.0 μM), and E (>1.0 μM).
`CN[C@@H](C)C(=O)N[C@H](C(=O)N1Cc2cc(OCCOCCOCCOCCNCc3ccc(-n4cc(NC(=O)c5coc(-c6ccnc(NCC7CC7)c6)n5)c(C(F)F)n4)cc3)ccc2C[C@H]1C(=O)N[C@@H]1CCCc2ccccc21)C(C)(C)C` [I-681, 2-[2-(Cyclopropylmethylamino)-4-pyridyl]-N-[3-(difluoromethyl)-1-[4-[[2-[2-[2-[2-[[(3S)-2-[(2S)-3,3-dimethyl-2-[[(2S)-2-(methylamino)propanoyl]amino]butanoyl]-3-[[(1R)-tetralin-1-yl]carbamoyl]-3,4-dihydro-1H-isoquinolin-7-yl]oxy]ethoxy]ethoxy]ethoxy]ethylamino]methyl]phenyl]pyrazol-4-yl]oxazole-4-carboxamide]: the DC50 (commonly the concentration giving 50% degradation) was in the range of 0.5 to 1 µM.

In the case of `CN[C@@H](C)C(=O)N[C@H](C(=O)N1CCC[C@H]1c1nc(C(=O)c2cccc(OCCOCCOCCOCCNCc3ccc(-n4cc(NC(=O)c5coc(-c6ccnc(NCC7CC7)c6)n5)c(C(F)F)n4)cc3)c2)cs1)C1CCCCC1` [I-554], the DC50 is > 1 µM.

As to `COCC(=O)N[C@H](C(=O)N1Cc2cc(OCCOCCOCCOCCOCCOCCNCc3ccc(-n4cc(NC(=O)c5coc(-c6ccnc(NCC7CC7)c6)n5)c(C(F)F)n4)cc3)ccc2CC1C(=O)N[C@@H]1CCCc2ccccc21)C(C)(C)C` (some centres unmarked) [I-416], the DC50 was > 1 µM.

For the compound `O=C1CCC(N2C(=O)c3cccc(N4CCN(CCOCCNC(=O)c5ccc(-n6cc(NC(=O)c7coc(-c8ccnc(NCC9CC9)c8)n7)c(C(F)F)n6)cc5)CC4)c3C2=O)C(=O)N1` (centres unmarked) [I-274], the DC50 is 0.1 to 0.5 µM.

`Cn1c(=O)n(C2CCC(=O)NC2=O)c2ccc(CCCCOCCCCNC(=O)c3ccc(-n4cc(NC(=O)c5cnn6ccc(N7CCNCC7)nc56)c(C(F)F)n4)cc3)cc21` (centres unmarked) [I-445, N-[3-(difluoromethyl)-1-[4-[4-[4-[1-(2,6-dioxo-3-piperidyl)-3-methyl-2-oxo-benzimidazol-5-yl]butoxylbutyl]carbamoyl]phenyl]pyrazol-4-yl]-5-piperazin-1-yl-pyrazolo[1,5-a]pyrimidine-3-carboxamide] displayed a DC50 of 0.05 to 0.1 µM.

`COCC(=O)N[C@H](C(=O)N1Cc2cc(OCCOCCOCCOCCOCCNC(=O)c3ccc(-n4cc(NC(=O)c5coc(-c6ccnc(NCC7CC7)c6)n5)c(C(F)F)n4)cc3)ccc2CC1C(=O)N[C@@H]1CCCc2ccccc21)C(C)(C)C` (some centres unmarked) [I-296]: the DC50 is > 1 µM.

`O=C1CCC(N2C(=O)c3cccc(NCCCCNCCCNC(=O)c4ccc(-n5cc(NC(=O)c6coc(-c7ccnc(NCC8CC8)c7)n6)c(C(F)(F)F)n5)cc4)c3C2=O)C(=O)N1` (centres unmarked) [I-218]: the DC50 is > 1 µM.

Consider `Cn1cc(NC(=O)c2coc(-c3ccnc(NCC(F)(F)F)c3)n2)c(C(=O)NCCOCCOCCOCCOCCOCCNc2cccc3c2C(=O)N(C2CCC(=O)NC2=O)C3=O)n1` (centres unmarked) [I-214], for which the DC50 was > 1 µM.

As to `O=C1CCC(n2c(=O)n(CCOCCOCCNC(=O)c3ccc(-n4cc(NC(=O)c5coc(-c6ccnc(NCC7CC7)c6)n5)c(C(F)F)n4)cc3)c3ccccc32)C(=O)N1` (centres unmarked) [I-251], the DC50 was < 0.05 µM.

For `Cn1cc(NC(=O)c2coc(-c3ccnc(NCC(F)(F)F)c3)n2)c(C(=O)NCCCOCCCOCCCNc2cccc3c2C(=O)N(C2CCC(=O)NC2=O)C3=O)n1` (centres unmarked) [I-294], the DC50 is > 1 µM.

For `Cn1c(=O)n(C2CCC(=O)NC2=O)c2cccc(CCCOCCOCCNC3(c4ccc(-n5cc(NC(=O)c6coc(-c7ccnc(NCC8CC8)c7)n6)c(C(F)F)n5)cc4)CC3)c21` (centres unmarked) [I-403], the DC50 fell in the range of 0.05 to 0.1 µM.

As for `Cn1c(=O)n(C2CCC(=O)NC2=O)c2cccc(CCCOCCOCCNCc3ccc(-n4cc(NC(=O)c5cocn5)c(C(N)=O)n4)cc3)c21` (centres unmarked) [I-422], the DC50 was > 1 µM.

In turn, `Cn1c(=O)n(C2CCC(=O)NC2=O)c2ccc(CCCOCC(C)(C)COCCCNCc3ccc(-n4cc(NC(=O)c5coc(-c6ccnc(NCC7CC7)c6)n5)c(C(F)F)n4)cc3)cc21` (centres unmarked) [I-421] showed a DC50 of 0.1 to 0.5 µM.

Regarding `O=C1CCC(N2C(=O)c3cccc(NCCOCCOCCOCC(=O)N4C[C@H](OC(=O)[C@@H]5CCCN5)C[C@H]4C(=O)NCc4ccc(-n5cc(NC(=O)c6coc(-c7ccnc(NCC8CC8)c7)n6)c(C(F)F)n5)cc4)c3C2=O)C(=O)N1` (some centres unmarked) [I-289], the DC50 is > 1 µM.

With `O=C1CCC(N2Cc3c(NC4CCN(CCOCCOCCNCc5ccc(-n6cc(NC(=O)c7coc(-c8ccnc(NCC9CC9)c8)n7)c(C(F)F)n6)cc5)CC4)cccc3C2=O)C(=O)N1` (centres unmarked) [I-384], the DC50 lay in the range of 0.5 to 1 µM.

As for `Cn1cc(NC(=O)c2coc(-c3ccnc(NCC(F)(F)F)c3)n2)c(C(=O)NCCOCCOCCOCCNc2cccc3c2C(=O)N(C2CCC(=O)NC2=O)C3=O)n1` (centres unmarked) [I-292], the DC50 was > 1 µM.

With `CC(NCCOCCOCCCc1cccc2c1n(C)c(=O)n2C1CCC(=O)NC1=O)c1ccc(-n2cc(NC(=O)c3coc(-c4ccnc(NCC5CC5)c4)n3)c(C(F)F)n2)cc1` (centres unmarked) [I-401], the DC50 was < 0.05 µM.

As to `NC(=O)c1nn(-c2ccc(C(=O)NCCOCCCOCCNc3cccc4c3C(=O)N(C3CCC(=O)NC3=O)C4=O)cc2)cc1NC(=O)c1coc(-c2ccnc(NCC3CC3)c2)n1` (centres unmarked) [I-213], the DC50 is < 0.05 µM.

`Cn1c(=O)n(C2CCC(=O)NC2=O)c2cccc(CCCOCCOCCNC(=O)c3ccc(-n4cc(NC(=O)c5coc(-c6ccnc(NCC(F)(F)F)c6)n5)c(C(F)F)n4)cc3)c21` (centres unmarked) [I-280]: the DC50 was < 0.05 µM.

As to `CC1(C)CCN(c2nn(-c3ccc(C(=O)NCCOCCOCCNc4cccc5c4C(=O)N(C4CCC(=O)NC4=O)C5=O)cc3)cc2NC(=O)c2coc(-c3ccnc(NCC(F)(F)F)c3)n2)C1=O` (centres unmarked) [I-429, N-[3-(3,3-dimethyl-2-oxo-pyrrolidin-1-yl)-1-[4-[2-[2-[2-[[2-(2,6-dioxo-3-piperidyl)-1,3-dioxo-isoindolin-4-yl]amino]ethoxy]ethoxy]ethyl]carbamoyl]phenyl]pyrazol-4-yl-2-[2-(2,2,2-trifluoroethylamino)-4-pyridyl]oxazole-4-carboxamide], the DC50 was > 1 µM.

Regarding `Cn1cc(NC(=O)c2coc(-c3ccnc(NCC(F)(F)F)c3)n2)c(CNCCCOCCCOCCCNc2cccc3c2C(=O)N(C2CCC(=O)NC2=O)C3=O)n1` (centres unmarked) [I-412], the DC50 is > 1 µM.

On to `Cn1c(=O)n(C2CCC(=O)NC2=O)c2ccc(CCCOCCCNCc3ccc(-n4cc(NC(=O)c5coc(-c6ccnc(NCC7CC7)c6)n5)c(C(F)F)n4)cc3)cc21` (centres unmarked) [I-405], for which the DC50 is < 0.05 µM.

For `Cn1c(=O)n(C2CCC(=O)NC2=O)c2cccc(CCCOCCCNCc3ccc(-n4cc(NC(=O)c5coc(-c6ccnc(NCC7CC7)c6)n5)c(C(F)F)n4)cc3)c21` (centres unmarked) [I-404], the DC50 was < 0.05 µM.

On to `Cn1c(=O)n(C2CCC(=O)NC2=O)c2cccc(CCCNCc3ccc(-n4cc(NC(=O)c5coc(-c6ccnc(NCC7CC7)c6)n5)c(C(F)F)n4)cc3)c21` (centres unmarked) [I-423], for which the DC50 was > 1 µM.

Take `O=C1CCC(N2C(=O)c3cccc(NCCOCCOCCNCc4ccc(-n5cc(NC(=O)c6coc(-c7ccnc(NCC(F)(F)F)c7)n6)c(CCCO)n5)cc4)c3C2=O)C(=O)N1` (centres unmarked) [I-402]: the DC50 is > 1 µM.

As for `Cc1ncsc1-c1ccc(CNC(=O)[C@@H]2C[C@@H](O)CN2C(=O)[C@@H](NCCOCCOCCOCCNC(=O)c2nn(C)cc2NC(=O)c2coc(-c3ccnc(NCC(F)(F)F)c3)n2)C(C)(C)C)cc1` [I-295], the DC50 was > 1 µM.
